Each structure is given as a SMILES string. ≈ marks a conversion by molar mass, not a printed value. Read-outs that look alike come from different tables or passages of the source.

What all share (assay type): cell-based
For assay [1], the system named is Staphylococcus aureus ATCC29213. Briefly: MIC, microbroth dilution. For orientation: Dilution methods test growth across graded concentrations, often in twofold steps.
The test system of assay [2] is Staphylococcus aureus ATCC29213 rpoB^D417Y. Briefly: microbe, parasite or virus in culture. In short, it runs like this: (§1)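 MICs by microbroth dilution per NCCLS guidelines, with all incubations at 37° C; S. aureus tested in Cation-Adjusted Mueller-Hinton Broth. Strains carry rifampin-resistance rpoB mutations or quinolone-resistance double mutations in DNA gyrase and topoisomerase IV.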

The subject of assay [3] is Staphylococcus aureus ATCC29213 rpoB^H418Y. Kind of assay: microbe, parasite or virus in culture. The essentials:
as §1

Assay [4] relates to Staphylococcus aureus EN1252a gyrA^S84L grlA^S80F. Kind of assay: microbe, parasite or virus in culture. The following applies: read-out: Antimicrobial activity (MIC). In short, it runs like this: as §1
Assay [5] concerns Staphylococcus epidermidis ATCC12228. Briefly: MIC, microbroth dilution. The following applies: Staphylococcus epidermidis ATCC12228, rifS; read-out: Antimicrobial activity (MIC).
Assay [6] relates to Streptococcus pneumoniae ATCC6303. Briefly: MIC, microbroth dilution. The conditions noted are these: Streptococcus pneumoniae ATCC6303, rifS; read-out: Antimicrobial activity (MIC).
The subject of assay [7] is Streptococcus pyogenes ATCC19615. Briefly: MIC, microbroth dilution. The conditions noted are these: Streptococcus pyogenes ATCC19615, rifS; read-out: Antimicrobial activity (MIC).
Assay [8] deals with Enterococcus faecalis ATCC29212. Briefly: MIC, microbroth dilution. The following applies: Enterococcus faecalis ATCC29212, rifS; read-out: Antimicrobial activity (MIC).
Assay [9] has as its system Haemophilus influenzae ATCC10211. Kind of assay: MIC, microbroth dilution. The conditions noted are these: Haemophilus influenzae ATCC10211, rifS; read-out: Antimicrobial activity (MIC).
Assay [10] deals with Escherichia coli ATCC25922. Briefly: MIC, microbroth dilution. The conditions noted are these: Escherichia coli ATCC25922, rifS; read-out: Antimicrobial activity (MIC).
In assay [11] the test system is Mycobacterium smegmatis ATCC700084. Briefly: MIC, microbroth dilution. The following applies: Mycolicibacterium smegmatis; Mycobacterium smegmatis ATCC700084, rifS; read-out: Antimicrobial activity (MIC).
Assay [12] can be described thus: MIC, microbroth dilution, panel of strains. The conditions noted are these: across five rifampin-susceptible Gram-positive strains. As for the experimental part:
(§2) Representative compounds were assayed for antimicrobial activity as follows: Minimum Inhibitory Concentrations (“MICs”) were determined by the microbroth dilution method as per NCCLS guidelines (National Committee for Clinical Laboratory Standards. 2000. Methods for dilution antimicrobial susceptibility tests for bacteria that grow aerobically, 5th ed. M7-A5. National Committee for Clinical Laboratory Standards, Wayne, Pa.), except that all growth incubations were conducted at 37° C. Bacterial cultures were tested in the following bacteriological media: S. aureus, S. epidermidis, and E. coli in Cation-Adjusted Mueller-Hinton Broth, S. pneumoniae in THY Broth supplemented with 1 mg/mL catalase under 5% CO2 atmosphere, S. pyogenes in THY Broth, E. faecalis in BHI Broth, H. influenzae in BHI Broth supplemented with 0.75 μL of 1 mg/mL NAD and 150 μL of 1 mg/ml hematin per 5 mL, and M. smegmatis in Middlebrook Broth plus ADC Enrichment.
(§3) S. aureus […], S. epidermidis ATCC 12228, S. pneumoniae ATCC6303, S. pyogenes ATCC 19615 and E. faecalis ATCC 29212 are rifampin-susceptible Gram-positive strains. […] The compounds of the current invention show further improved activity against these strains with MICs as low as 0.0002 μg/ml. H. influenzae ATCC 10211 and E. coli ATCC 25922 are Gram-negative bacteria. […]

Assay [13] has as its system Gram-negative bacteria (H. influenzae ATCC 10211 and E. coli ATCC 25922). Briefly: MIC, microbroth dilution, panel of strains. The following applies: Haemophilus influenzae; across H. influenzae ATCC 10211 and E. coli ATCC 25922. As for the experimental part:
as §2, §3

Where [14] appears, read: Staphylococcus aureus ATCC29213, rifS, read-out: Antimicrobial activity (MIC).
[15] abbreviates: Staphylococcus aureus ATCC29213 rpoB^D417Y, rifR, read-out: Antimicrobial activity (MIC).
The mark [16] stands for this setting: Staphylococcus aureus ATCC29213 rpoB^H418Y, rifR, read-out: Antimicrobial activity (MIC).
Setting [17] is: Staphylococcus aureus EN1252a gyrA^S84L grlA^S80F, cipR.
Where [18] appears, read: Staphylococcus aureus, ATCC29213.
Where [19] appears, read: Staphylococcus aureus, ATCC29213, read-out: Antimicrobial activity (MIC).

For the compound `C=CCO/N=C1/c2c3c(C)c(O)c4c2C(=O)C(N2CCOCC2)=C(NC(=O)/C(C)=C\C=C\[C@H](C)[C@H](O)[C@@H](C)[C@@H](O)[C@@H](C)[C@H](OC(C)=O)[C@H](C)[C@@H](OC)/C=C/O[C@@]1(C)O3)C4=O` [Example 36, 11-Deoxy-3-(morpholin-4-yl)-11-allyloxyiminorifamycin S], the MIC in assay [1] (setting [14]) lay within 0.004 to 0.5 µg/mL (≈ 0.00478 to 0.598 µM); in assay [2] (setting [15]), 0.25 to 32 µg/mL (≈ 0.299 to 38.3 µM); in assay [3] (setting [16]), 0.125 to 16 µg/mL (≈ 0.15 to 19.1 µM); in assay [4] (setting [17]), 0.004 to 0.5 µg/mL (≈ 0.00478 to 0.598 µM); in assay [5] it was 0.0005 to 0.063 µg/mL (≈ 0.000598 to 0.0754 µM); in assay [6] it was 0.0002 to 0.125 µg/mL (≈ 0.000239 to 0.15 µM). The MIC is 0.0005 to 0.063 µg/mL (≈ 0.000598 to 0.0754 µM) in assay [7]; 2 to 32 µg/mL (≈ 2.39 to 38.3 µM) in assay [8]; 0.03 to 2 µg/mL (≈ 0.0359 to 2.39 µM) in assay [9]; 0.125 to 8 µg/mL (≈ 0.15 to 9.57 µM) in [10]; 0.5 to 64 µg/mL (≈ 0.598 to 76.6 µM) in [11].
Take `CO[C@H]1/C=C/O[C@@]2(C)Oc3c(C)c(O)c4c(O)c(c(/C=N/N5CCN(C)CC5)c(O)c4c3/C2=N/O)NC(=O)/C(C)=C\C=C\[C@H](C)[C@H](O)[C@@H](C)[C@@H](O)[C@@H](C)[C@H](OC(C)=O)[C@@H]1C` [Example 37, 11-Deoxy-11-hydroxyimino-3-(4-methylpiperazin-1-yl)aminomethenylrifamycin SV]: the MIC is 0.004 to 0.5 µg/mL (≈ 0.00477 to 0.597 µM) in assay [1] (setting [14]); 0.25 to 32 µg/mL (≈ 0.298 to 38.2 µM) in assay [2] (setting [15]); 0.125 to 16 µg/mL (≈ 0.149 to 19.1 µM) in [3] (setting [16]); 0.004 to 0.5 µg/mL (≈ 0.00477 to 0.597 µM) in assay [4] (setting [17]); 0.0005 to 0.063 µg/mL (≈ 0.000597 to 0.0752 µM) in assay [5]; 0.0002 to 0.125 µg/mL (≈ 0.000239 to 0.149 µM) in assay [6]. The MIC in assay [7] was in the range of 0.0005 to 0.063 µg/mL (≈ 0.000597 to 0.0752 µM); in [8] it was 2 to 32 µg/mL (≈ 2.39 to 38.2 µM); in assay [9], 0.03 to 2 µg/mL (≈ 0.0358 to 2.39 µM); in assay [10], 0.125 to 8 µg/mL (≈ 0.149 to 9.55 µM); in [11], 0.5 to 64 µg/mL (≈ 0.597 to 76.4 µM).
For the compound `CO[C@H]1/C=C/O[C@@]2(C)Oc3c(C)c(O)c4c(c3/C2=N/O)C(=O)C(/C=N/N2CCN(C)CC2)=C(NC(=O)/C(C)=C\C=C\[C@H](C)[C@H](O)[C@@H](C)[C@@H](O)[C@@H](C)[C@H](OC(C)=O)[C@@H]1C)C4=O` [Example 38, 11-Deoxy-11-hydroxyimino-3-(4-methylpiperazin-1-yl)aminomethenylrifamycin S], the MIC in assay [1] (setting [14]) lay within 0.004 to 0.5 µg/mL (≈ 0.00478 to 0.598 µM); in assay [2] (setting [15]) it was 0.25 to 32 µg/mL (≈ 0.299 to 38.3 µM); in assay [3] (setting [16]), 0.125 to 16 µg/mL (≈ 0.15 to 19.1 µM); in [4] (setting [17]) it was 0.004 to 0.5 µg/mL (≈ 0.00478 to 0.598 µM); in assay [5] it was 0.0005 to 0.063 µg/mL (≈ 0.000598 to 0.0754 µM); in [6], 0.0002 to 0.125 µg/mL (≈ 0.000239 to 0.15 µM). Also, the MIC in assay [7] lay within 0.0005 to 0.063 µg/mL (≈ 0.000598 to 0.0754 µM); in [8] it was 2 to 32 µg/mL (≈ 2.39 to 38.3 µM); in [9] it was 0.03 to 2 µg/mL (≈ 0.0359 to 2.39 µM); in assay [10] it was 0.125 to 8 µg/mL (≈ 0.15 to 9.57 µM); in [11] it was 0.5 to 64 µg/mL (≈ 0.598 to 76.6 µM).
For the compound `CO[C@H]1/C=C/O[C@@]2(C)Oc3c(C)c(O)c4c(O)c(c(/C=N/N5CCN(c6cc7c(cc6F)c(=O)c(C(=O)O)cn7C6CC6)CC5)c(O)c4c3/C2=N/O)NC(=O)/C(C)=C\C=C\[C@H](C)[C@H](O)[C@@H](C)[C@@H](O)[C@@H](C)[C@H](OC(C)=O)[C@@H]1C` [Example 39, 3-[4-(3-Carboxy-1-cyclopropyl-6-fluoro-4-oxo-1,4-dihydroquinolin-7-yl)piperazin-1-yl-aminomethylenyl]-11-deoxy-11-hydroxyiminorifamycin SV], the MIC lay in the range of 0.004 to 0.5 µg/mL (≈ 0.00374 to 0.468 µM) in [1] (setting [14]); 0.25 to 32 µg/mL (≈ 0.234 to 29.9 µM) in [2] (setting [15]); 0.125 to 16 µg/mL (≈ 0.117 to 15 µM) in assay [3] (setting [16]); 0.004 to 0.5 µg/mL (≈ 0.00374 to 0.468 µM) in [4] (setting [17]); 0.0005 to 0.063 µg/mL (≈ 0.000468 to 0.0589 µM) in assay [5]; 0.0002 to 0.125 µg/mL (≈ 0.000187 to 0.117 µM) in [6]. Moreover, the MIC in assay [7] was in the range of 0.0005 to 0.063 µg/mL (≈ 0.000468 to 0.0589 µM); in assay [8], 2 to 32 µg/mL (≈ 1.87 to 29.9 µM); in assay [9], 0.03 to 2 µg/mL (≈ 0.0281 to 1.87 µM); in [10] it was 0.125 to 8 µg/mL (≈ 0.117 to 7.48 µM); in assay [11] it was 0.5 to 64 µg/mL (≈ 0.468 to 59.9 µM).
As to `CO[C@H]1/C=C/O[C@@]2(C)Oc3c(C)c(O)c4c(O)c(c(/C=N/N5CCN(C)CC5)c(O)c4c3C2=O)NC(=O)/C(C)=C\C=C\[C@H](C)[C@H](O)[C@@H](C)[C@@H](O)[C@@H](C)[C@H](OC(C)=O)[C@@H]1C` [rifampin, reference compound], the MIC in assay [1] (setting [14]) is 0.008 µg/mL (≈ 0.00972 µM); in [1] (Staphylococcus aureus, ATCC29213, S. aureus ATCC 29213 wild type, read-out: MIC), 0.008 µg/mL (≈ 0.00972 µM); in assay [2] (setting [18]), more than 64 µg/mL; in assay [2] (setting [19]), more than 64 µg/mL; in assay [3] (setting [18]) it was 8 µg/mL (≈ 9.72 µM); in assay [3] (setting [19]) it was 8 µg/mL (≈ 9.72 µM). Also, the MIC came to 0.004 µg/mL (≈ 0.00486 µM) in [4] (Staphylococcus aureus); 0.03 µg/mL (≈ 0.0365 µM) in [5]; 0.061 µg/mL (≈ 0.0741 µM) in [6]; 0.013 µg/mL (≈ 0.0158 µM) in assay [7]; 1 µg/mL (≈ 1.22 µM) in assay [8]; 0.24 µg/mL (≈ 0.292 µM) in assay [9]. Also, the MIC in [10] is 16 µg/mL (≈ 19.4 µM); in assay [11] it was 64 µg/mL (≈ 77.8 µM); in [12] it was 0.013 to 1 µg/mL (≈ 0.0158 to 1.22 µM); in assay [13], 0.24 to 16 µg/mL (≈ 0.292 to 19.4 µM).
